Data on eleven compounds can be found in the SangsterLogP compilation.

A word on the logD: it is lipophilicity at a set pH, counting ionised and neutral species. A low value points to lower lipophilicity.

The nature of the data set: method code SF, from DOI: 10.1016/0223-5234(90)90141-o. As to conditions: pH 7.4.

Structures are written as SMILES.

In turn, `COc1cc(S(C)=O)ccc1-c1nc2cnncc2[nH]1` (stereo unspecified) yielded a logD of 0.39. To `COc1cc(S(C)=O)ccc1-c1nc2nnccc2[nH]1` (stereo unspecified) belongs 0.23; to `COc1cc(S(C)=O)ccc1-c1nc2cnccc2n1C` (stereo unspecified), 2.15; to `COc1cc(S(C)=O)ccc1-c1nc2cnccc2[nH]1` (stereo unspecified), 1.23.

Regarding `COc1cc(S(C)=O)ccc1-c1nc2cnccc2s1` (stereo unspecified), the logD was 2.21. `COc1ccc(-c2nc3ccncc3n2C)c(OC)c1` gave a logD of 2.68. To `COc1ccc(-c2nc3cnccc3o2)c(OC)c1` belongs 2.42.

Take `COc1cc(S(C)=O)ccc1-c1nc2nccnc2[nH]1` (stereo unspecified): the logD came to 0.66. Consider `COc1cccc(OC)c1-c1nc2cnccc2[nH]1`, for which the pH-dependent lipophilicity (logD) was found to be 1.66. Next, `COc1cc(S(C)=O)ccc1-c1nc2ncncc2[nH]1` (stereo unspecified): 0.53; `COc1ccc(-c2nc3cnccc3n2C)c(OC)c1`: 2.66.
